“Also recorded” adds a separate entry of the source.
What was measured:
[1] = target: T1, A/M2-V27A (Influenza A virus, UniProt P0DOF5, V27A); format: cell-based, Influenza A virus (Udorn strain)
[2] = tested on: influenza A virus (A/Udorn/72) V27A mutant; format: cell-based
[3] = target: T1, A/M2-V27A; conditions: cited from earlier work

## NC12CC3CC(CC(C3)C1)C2 [Amantadine]
[1]
  inhibition against V27A mutant (in words): completely unable to inhibit
[2]
  inhibition of A/M2-V27A virus replication: no inhibition; also recorded: no effect
[3]
  effect of V27A mutation on channel sensitivity to drug: entirely resistant

## CC(N)C12CC3CC(CC(C3)C1)C2 (stereo not shown) [rimantadine]
[3]
  effect of V27A mutation on channel sensitivity to drug: entirely resistant
